The supplement of paper PMC4862054
Where “and” joins values, the source holds several entries; their conditions need not be identical. Equal entries are not always repeated.

How the values were obtained:
Assay in all cases: normalised viability (% of control), CellTiter-Blue; higher = more viable cells (about 100 = DMSO control)
Conditions in all cases: incubation time: 72 h
CAL-148 [1] = system: CAL-148
Experimental: (§1)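 DSRT, CellTiter-Blue viability, 72 h incubation. Signal is normalised to DMSO and benzethonium chloride controls. Value is the normalised response at dose 8.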

CAL-51 [2] = system: CAL-51
Experimental: as §1

CAL-85-1 [3] = system: CAL-85-1
Experimental: as §1

DU-4475 [4] = system: DU-4475
Experimental: as §1

HDQ-P1 [5] = system: HDQ-P1
Experimental: as §1

MDA-MB-453 [6] = system: MDA-MB-453
Experimental: as §1

CAL-148 [7] = system: CAL-148; remark: listed apart in the source
Experimental: (§2)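 DSRT, CellTiter-Blue viability, 72 h incubation. Signal is normalised to DMSO and benzethonium chloride controls. Value is the normalised response at dose 9.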

CAL-51 [8] = system: CAL-51; remark: listed apart in the source
Experimental: as §2

CAL-85-1 [9] = system: CAL-85-1; remark: listed apart in the source
Experimental: as §2

DU-4475 [10] = system: DU-4475; remark: listed apart in the source
Experimental: as §2

HDQ-P1 [11] = system: HDQ-P1; remark: listed apart in the source
Experimental: as §2

MDA-MB-453 [12] = system: MDA-MB-453; remark: listed apart in the source
Experimental: as §2

Row | Structure (SMILES) | normalised viability (CAL-148 [1]) | normalised viability (CAL-51 [2]) | normalised viability (CAL-85-1 [3]) | normalised viability (DU-4475 [4]) | normalised viability (HDQ-P1 [5]) | normalised viability (MDA-MB-453 [6]) | normalised viability (CAL-148 [7]) [%] | normalised viability (CAL-51 [8]) [%] | normalised viability (CAL-85-1 [9]) [%] | normalised viability (DU-4475 [10]) [%] | normalised viability (HDQ-P1 [11]) [%] | normalised viability (MDA-MB-453 [12]) [%]
1 | O=C(c1cc(Cc2n[nH]c(=O)c3ccccc23)ccc1F)N1CCN(C(=O)C2CC2)CC1 [Olaparib] (3000 nM) | 64.2% | 68.9% | 71.4% | 72.4% | 100% | 93% | – | – | – | – | – | –
2 | CO[C@H](C(=O)[C@@H](O)[C@@H](C)O)[C@@H]1Cc2cc3cc(O[C@H]4C[C@@H](O[C@@H]5C[C@@H](O)[C@H](O)[C@@H](C)O5)[C@H](O)[C@@H](C)O4)c(C)c(O)c3c(O)c2C(=O)[C@H]1O[C@H]1C[C@@H](O[C@@H]2C[C@@H](O)[C@@H](O[C@@H]3C[C@](C)(O)[C@H](O)[C@@H](C)O3)[C@@H](C)O2)[C@H](O)[C@@H](C)O1 [Plicamycin] (3000 nM) | 5.24% and 3.76% | 3.09% and 4.26% | 5.82% and 5.38% | 2.08% and 0.69% | 23.8% and 15.9% | 7% and 7.5% | – | – | – | – | – | –
3 | C[C@]12C=CC(=O)C=C1CC[C@@H]1[C@@H]2C(=O)C[C@@]2(C)[C@H]1CC[C@]2(O)C(=O)CO [Prednisone] (3000 nM) | 94.2% | 102% | 99.3% | 104% | 120% | 93.5% | – | – | – | – | – | –
4 | CO[C@H]1C[C@@H]2CC[C@@H](C)[C@@](O)(O2)C(=O)C(=O)N2CCCC[C@H]2C(=O)O[C@H]([C@H](C)C[C@@H]2CC[C@@H](O)[C@H](OC)C2)CC(=O)[C@H](C)/C=C(\C)[C@@H](O)[C@@H](OC)C(=O)[C@H](C)C[C@H](C)/C=C/C=C/C=C/1C [Sirolimus] (300 nM) | 39.1% | 31.1% | 59.8% | 63.7% | 58.8% | 31.6% | – | – | – | – | – | –
5 | CO[C@H]1C[C@@H]2CC[C@@H](C)[C@@](O)(O2)C(=O)C(=O)N2CCCC[C@H]2C(=O)O[C@H]([C@H](C)C[C@@H]2CC[C@@H](O)[C@H](OC)C2)CC(=O)[C@H](C)/C=C(\C)[C@@H](O)[C@@H](OC)C(=O)[C@H](C)C[C@H](C)/C=C/C=C/C=C/1C [Sirolimus] (1000 nM) | – | – | – | – | – | – | 44 | 26.1 | 59.3 | 59.9 | 70.3 | 25.3
6 | CN1CCN(c2nc(C3=C(c4c[nH]c5ccccc45)C(=O)NC3=O)c3ccccc3n2)CC1 [Sotrastaurin] (3000 nM) | 116% | 97.3% | 141% | 95.9% | 126% | 93.8% | – | – | – | – | – | –
7 | CC/C(=C(\c1ccccc1)c1ccc(OCCN(C)C)cc1)c1ccccc1 [Tamoxifen] (3000 nM) | 117% | 99.1% | 102% | 106% | 100% | 89.7% | – | – | – | – | – | –
8 | COc1cc2c(N3CCN(C(=O)Nc4ccc(OC(C)C)cc4)CC3)ncnc2cc1OCCCN1CCCCC1 [Tandutinib] (300 nM) | 94.4% | 115% | 95.7% | 109% | 93.5% | 102% | – | – | – | – | – | –
9 | C[C@@H](C(=O)O)c1ccc(-c2ccccc2)c(F)c1 [Tarenflurbil] (3000 nM) | 94.4% | 113% | 88.8% | 115% | 93% | 79.5% | – | – | – | – | – | –
10 | Cn1nnc2c(C(N)=O)ncn2c1=O [Temozolomide] (3000 nM) | 88.8% | 93.6% | 97.3% | 100% | 103% | 104% | – | – | – | – | – | –
11 | CC[C@@H]1C(=O)N(C)c2cnc(Nc3ccc(C(=O)N[C@H]4CC[C@H](N5CCN(CC6CC6)CC5)CC4)cc3OC)nc2N1C(C)C [Volasertib] (300 nM) | 26.6% | 9.3% | 64.6% | 18.6% | 59.4% | 34.3% | – | – | – | – | – | –
